The source of these data is PMC5443055 (Human Vaccines & Immunotherapeutics, 2014).

The test system of the assay is splenocytes of immunized HLA DR3 tg mice. The experiment in a line: Th1/Th2/Th17 cytokine bead array. Type of assay: cell-based, mouse (HLA DR3 transgenic). The conditions noted are these: ConA 2 μg/mL, positive control, consistent between arms.

For Concanavalin A [ConA], where the note is “highest of panel”, the “IFNγ concentration above background” value worked out at 260 pg/mL. Also, where the note is “lowest of panel”, the “IL-4 concentration above background” value turned out to be 16 pg/mL.
